In the supplement of paper PMC13207355:

Tests used:
Conditions in all cases: exposure time: 72 h
[1] = test system: E28 (patient-derived glioblastoma stem cells of classical subtype); assay: surviving fraction (nuclei count normalised to DMSO); higher = more cells surviving (less toxic)
[2] = test system: E34 (patient-derived glioblastoma stem cells of proneural subtype); assay: as above
[3] = test system: E13 (patient-derived glioblastoma stem cells of classical subtype); assay: as above
[4] = test system: E21 (patient-derived glioblastoma stem cells of mesenchymal subtype); assay: as above
[5] = test system: FT3469 (normal neural stem cell line); assay: as above
[6] = test system: E57 (patient-derived glioblastoma stem cells of mesenchymal subtype); assay: as above
[7] = test system: E28; assay: phenotypic distance (Euclidean, principal components) from DMSO controls (arbitrary units); higher = stronger morphological change
[8] = test system: E34; assay: as above
[9] = test system: E13; assay: as above
[10] = test system: E21; assay: as above
[11] = test system: FT3469; assay: as above
[12] = test system: E57; assay: as above
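Throughout, for phenotypic distance (Euclidean, principal components) from DMSO controls: cell Painting imaging in 384-well plates, CellProfiler features reduced to at least 20 principal components, Euclidean distance versus same-plate DMSO vehicle wells (0.1% v/v), median over six images per well.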
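Throughout, for surviving fraction (nuclei count normalised to DMSO): nuclei counted by high-content imaging of Hoechst-stained cells in laminin-coated 384-well plates, relative to 0.1% DMSO vehicle wells, with staurosporine as cell-death control.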

Cc1cc(C)c(CN2CCc3c(Cl)cc(-c4c(C)noc4C)c(Cl)c3C2=O)c(=O)[nH]1
Conditions | phenotypic distance | surviving fraction
[1], 4.1 nM | – | 0.912
[1], 4.11523 nM | – | 1.06
[1], 12.3 nM | – | 1.07
[1], 12.34567901 nM | – | 0.996
[1], 37 nM | – | 0.901
[1], 37.037 nM | – | 1.05
[1], 111.1 nM | – | 0.947
[1], 111.1111111 nM | – | 0.947
[1], 333.3 nM | – | 0.95
[1], 333.333 nM | – | 1.17
[1], 1000 nM | – | 0.98
[1], 3000 nM | – | 0.991
[2], 4.1 nM | – | 0.921
[2], 4.11523 nM | – | 0.993
[2], 12.3 nM | – | 1.13
[2], 12.34567901 nM | – | 0.993
[2], 37 nM | – | 0.811
[2], 37.037 nM | – | 0.929
[2], 111.1 nM | – | 1.11
[2], 111.1111111 nM | – | 0.938
[2], 333.3 nM | – | 0.85
[2], 333.333 nM | – | 1.01
[2], 1000 nM | – | 0.861
[2], 3000 nM | – | 0.96
[3], 4.1 nM | – | 1.06
[3], 4.11523 nM | – | 0.856
[3], 12.3 nM | – | 1.14
[3], 12.34567901 nM | – | 0.965
[3], 37 nM | – | 0.832
[3], 37.037 nM | – | 1
[3], 111.1 nM | – | 1.12
[3], 111.1111111 nM | – | 1.02
[3], 333.3 nM | – | 0.891
[3], 333.333 nM | – | 1.06
[3], 1000 nM | – | 1.01
[3], 3000 nM | – | 0.89
[4], 4.1 nM | – | 0.906
[4], 4.11523 nM | – | 0.889
[4], 12.3 nM | – | 1.06
[4], 12.34567901 nM | – | 0.956
[4], 37 nM | – | 0.952
[4], 37.037 nM | – | 0.858
[4], 111.1 nM | – | 1.03
[4], 111.1111111 nM | – | 1.03
[4], 333.3 nM | – | 0.966
[4], 333.333 nM | – | 0.985
[4], 1000 nM | – | 0.973
[4], 3000 nM | – | 0.984
[5], 4.1 nM | – | 0.866
[5], 4.11523 nM | – | 0.918
[5], 12.3 nM | – | 0.934
[5], 12.34567901 nM | – | 0.961
[5], 37 nM | – | 0.862
[5], 37.037 nM | – | 0.857
[5], 111.1 nM | – | 0.892
[5], 111.1111111 nM | – | 1.05
[5], 333.3 nM | – | 0.977
[5], 333.333 nM | – | 0.9
[5], 1000 nM | – | 0.914
[5], 3000 nM | – | 0.971
[6], 4.1 nM | – | 0.932
[6], 4.11523 nM | – | 0.986
[6], 12.3 nM | – | 0.955
[6], 12.34567901 nM | – | 0.938
[6], 37 nM | – | 1.02
[6], 37.037 nM | – | 1.04
[6], 111.1 nM | – | 0.932
[6], 111.1111111 nM | – | 1.01
[6], 333.3 nM | – | 1
[6], 333.333 nM | – | 1.01
[6], 1000 nM | – | 1.02
[6], 3000 nM | – | 1.06
[7], 4.1 nM | 0.563 | –
[7], 4.11523 nM | 0.484 | –
[7], 12.3 nM | 0.447 | –
[7], 12.34567901 nM | 0.539 | –
[7], 37 nM | 0.798 | –
[7], 37.037 nM | 0.532 | –
[7], 111.1 nM | 0.371 | –
[7], 111.1111111 nM | 2.05 | –
[7], 333.3 nM | 0.616 | –
[7], 333.333 nM | 0.607 | –
[7], 1000 nM | 0.701 | –
[7], 3000 nM | 0.617 | –
[8], 4.1 nM | 0.88 | –
[8], 4.11523 nM | 0.409 | –
[8], 12.3 nM | 0.682 | –
[8], 12.34567901 nM | 0.739 | –
[8], 37 nM | 1.1 | –
[8], 37.037 nM | 0.359 | –
[8], 111.1 nM | 0.667 | –
[8], 111.1111111 nM | 0.478 | –
[8], 333.3 nM | 1.23 | –
[8], 333.333 nM | 0.552 | –
[8], 1000 nM | 0.66 | –
[8], 3000 nM | 1.1 | –
[9], 4.1 nM | 0.55 | –
[9], 4.11523 nM | 0.762 | –
[9], 12.3 nM | 0.528 | –
[9], 12.34567901 nM | 0.464 | –
[9], 37 nM | 0.636 | –
[9], 37.037 nM | 0.555 | –
[9], 111.1 nM | 0.599 | –
[9], 111.1111111 nM | 0.586 | –
[9], 333.3 nM | 0.546 | –
[9], 333.333 nM | 2.27 | –
[9], 1000 nM | 0.5296 | –
[9], 3000 nM | 1.67 | –
[10], 4.1 nM | 0.846 | –
[10], 4.11523 nM | 0.624 | –
[10], 12.3 nM | 0.502 | –
[10], 12.34567901 nM | 0.663 | –
[10], 37 nM | 0.782 | –
[10], 37.037 nM | 0.448 | –
[10], 111.1 nM | 0.333 | –
[10], 111.1111111 nM | 2.67 | –
[10], 333.3 nM | 1.29 | –
[10], 333.333 nM | 0.358 | –
[10], 1000 nM | 0.536 | –
[10], 3000 nM | 0.603 | –
[11], 4.1 nM | 0.799 | –
[11], 4.11523 nM | 0.574 | –
[11], 12.3 nM | 0.456 | –
[11], 12.34567901 nM | 0.531 | –
[11], 37 nM | 3.66 | –
[11], 37.037 nM | 0.66 | –
[11], 111.1 nM | 0.618 | –
[11], 111.1111111 nM | 0.467 | –
[11], 333.3 nM | 0.925 | –
[11], 333.333 nM | 1.74 | –
[11], 1000 nM | 0.694 | –
[11], 3000 nM | 0.451 | –
[12], 4.1 nM | 0.289 | –
[12], 4.11523 nM | 0.517 | –
[12], 12.3 nM | 0.432 | –
[12], 12.34567901 nM | 0.412 | –
[12], 37 nM | 0.351 | –
[12], 37.037 nM | 0.334 | –
[12], 111.1 nM | 0.307 | –
[12], 111.1111111 nM | 0.418 | –
[12], 333.3 nM | 0.28 | –
[12], 333.333 nM | 0.343 | –
[12], 1000 nM | 0.373 | –
[12], 3000 nM | 0.511 | –
